The text below walks through data of US20080206792A1, “Method of identifying compounds useful to treat neuronal degenerative diseases” (University of Iowa Research Foundation, priority 2005, published 2008).

Data set [1] relates to Nox. Format: biochemical, mouse. Here is the method: Lucigenin chemiluminescence (LCL) assay for NADPH-dependent superoxide (.O2) production. NADPH oxidase activities were analyzed by measuring the rate of ? generation using a chemiluminescent, lucigenin-based system (Li et al., 1998). 5 μM lucigenin in 50 μl of each subcellular fractions was incubated in the dark at room temperature for 15 minutes. LCL was measured using a single-tube Luminometer TD20-20 (Turner Designs Sunnyvale, Calif.). The reaction was initiated by the addition β-NADPH to a final concentration of 100 μM with or without DPI and/or SOD as indicated. LCL was measured over the course of 5 minutes. The initial slope of the luminescence curve (RLU/minute) was used to calculate the rate of luminescence product formation and compared between samples as an index of NADPH oxidase activity.

In data set [2] the target is Nox2 (Mus musculus, UniProt Q61093). To be noted: PMDF endosomes with purified bovine SOD1. The source says:
Subcellular Fractionation.
Lucigenin chemiluminescence (LCL) assay for NADPH-dependent superoxide (.O2) production.

In data set [3] the test system is MCF-7 cells. The data set can be described thus: H2HFF-BSA endosomal fluorescence after IL-1β in MCF-7 cells. The format is cell-based, human. Here is the method: In vivo localization of redox-active endosomes and ROS production. In vivo localization of superoxides within endosomes was performed using OxyBURST Green H2HFF-BSA (Molecular Probes). Stock solutions (1 mg/ml) were generated immediately prior to use by dissolving H2HFF-BSA in PBS under nitrogen and protected from light. Cells were incubated in the presence of 50 μg/ml OxyBurst Green H2HFF-BSA for 2 minutes at 37° C. and then stimulated by the addition of IL-1β (1 ng/ml). Cells were fixed in 4% paraformaldehyde at various times (1-10 minutes) post-stimulation and evaluated by fluorescent microscopy. Various compounds (1 mg/ml SOD or 10 μM DPI) were added at the time of IL-1β stimulation. Co-localization of H2HFF-BSA and EEA1 was performed by immunofluorescent localization in post-fixed samples using an anti-EEA1 monoclonal antibody (Transduction Laboratories) and a Texas Red-Conjugated Goat Anti-Mouse Antibody (Jackson ImmunoResearch Laboratories). In vivo localization of total cellular ROS (predominantly H2O2) was performed using H2DCFDA (Molecular Probes). […]
IL-1β induces Nox2 complex activation in early endosomes. […] By incubating cells in the presence of H2HFF-BSA, the endosomal compartment was loaded with this dye and ? detected by a green fluorescence signal. […] These findings confirmed that Nox-derived ? were the major ROS detected by H2HFF-BSA in the endosomal compartment. […]

Data set [4] addresses T1, NADPH oxidase (Homo sapiens, UniProt P04839). The data set is described as follows: Lucigenin assay of NADPH-dependent superoxide production in vesicular fractions of IL-1β-stimulated MCF-7 cells.
Experimental: Cytokine treatments and vesicular isolation. MCF-7 cells were treated with recombinant IL-1β at the indicated concentration for 20 minutes prior to all vesicular isolations. For endosomal loading experiments, purified bovine Cu/ZnSOD (Oxis Research) and/or catalase (Sigma-Aldrich) proteins were added to fresh media (0.1 to 1 mg protein/ml) and applied to cells 10 minutes prior to cytokine treatment in the continued presence of SOD and/or catalase. Cells were washed and scraped into ice-cold PBS. Cell pellets were then resuspended in 0.5 ml of homogenization buffer (0.25 M sucrose, 10 mM triethanolamine, 1 mM EDTA, 1 mM PMSF, and 100 ug/ml aprotinin), homogenized in a Duall tissue grinder (Duall), and centrifuged at 2000×g at 4° C. for 10 minutes. The supernatant was designated the post-nuclear supernatant (PNS). […] The PNS was then bottom loaded under two-step gradients of 24% and 20% Iodixanol in homogenization buffer. Samples were centrifuged at 30,500 rpm for 2 hours at 4° C. Fractions were collected from the top to the bottom of the centrifuge tube at 4° C. (about 300 μl per fraction) and utilized immediately for NADPH oxidase activity and immuno-isolation, or frozen for Western blot analysis.
NFκB and NADPH oxidase activity assays. […] NADPH oxidase activities were analyzed by measuring the rate of ? generation using a chemiluminescent, lucigenin-based system (Li et al., 2001). Prior to the initiation of the assay, 5 μg of vesicular proteins were combined with 5 μM lucigenin (Sigma-Aldrich) in PBS and incubated in darkness at room temperature for 10 minutes. The reaction was initiated by the addition of 100 μM of NADPH (Sigma-Aldrich) and changes in luminescence were measured over the course of 3 minutes (5 readings/second). The slope of the luminescence curve (relative light units [RLU] per minute) (r>0.95) was used to calculate the rate of ? formation as an index of NADPH oxidase activity (RLU/min μg protein).
The target of data set [5] is T1, NADPH oxidase. The data set is described as follows: ESR (DMPO adduct) of NADPH-dependent superoxide by IL-1β-activated endosomes. The format is biochemical. Details: enhanced recruitment of endogenous Nox2 to endosomes only following IL-1β stimulation; endogenous in cells; host or cells: MCF-7 cells, IL-1β-stimulated, iodixanol vesicular fractions. To be noted: endosomal loading prior to vesicular isolation.

The test system of data set [6] is SOD1-G93A mice. The data set is described as follows: Survival and disease progression of G93A-SOD1 transgenic (ALS) mice given apocynin in drinking water. Format: in vivo, mouse. The source says: FIG. 14. […] D) Survival Index is the time between disease onset and clinical death and is a marker of disease progression.
(§1) FIG. 17. […] A) Survival curve for mice treated with different doses of apocynin in their water beginning at 14 days of age. Number of mice (N) for each treatment group is shown along with median survival times in days. B) Survival data of male and female mice for each given dose of apocynin. Mice treated for eye infections with antibiotics are marked as boxes. Those mice that were unsuccessfully treated and died from eye infections are denoted by an X within the box. Circles denote animals that never contracted eye infection. The number of mice in each group (N) is given above the mean survival in days for each dose of apocynin. C) Relationship between age of disease onset (as determined by a 5% weight loss during a one week period) and apocynin dosage. D) Survival Index was measured as the time from disease onset until the animal reached clinical death for each of the given doses of apocynin. E) NADPH-dependent superoxide production (Nox activity) was measured in total membranes of lumbar spinal cord from end-stage G93A-SOD1 transgenic mice (about 120 days of age) either untreated or treated with apocynin (300 mg/kg) for 5 days prior to analysis (N=5 in each group). F) Dihydroethidium fluorescence in lumbar spinal cord of the same mice shown in (E).
However, it is currently unclear if other Rac-regulated Nox complexes (such as Nox1 and Nox3) might also contribute to altered ROS production in ALS. To test the therapeutic potential of direct Nox inhibition on the pathoprogression of ALS disease, apocynin in vivo inhibition studies were performed in G93A-ALS mice.

For data set [7], the system named is MO59J (glial) cells. The data set can be described thus: NADPH-dependent superoxide production and cell death in glial cells infected with adenovirus expressing mutant SOD1. As to conditions: apocynin 100 μM for 72 hours. Format: cell-based. The text has this: (§2) FIG. 15. […] A) NADPH-dependent superoxide production in total endomembranes from brain, spinal cord, and liver of non-transgenic or transgenic mice overexpressing WT-SOD1 or G93A-SOD1 (N=3 animals in each group). B) Dihydroethidium (DHE) fluorescent detection of superoxide in lumbar spinal cord sections from 120 day old non-transgenic or transgenic mice overexpressing WT-SOD1 or G93A-SOD1. DAP1 staining demarcates nuclei in lower panels. C, D) Measure of superoxide production (C) or trypan-blue exclusion as a measure of cell death (D) in SH-SY (neuronal) or MO59J (glial) cells infected with adenoviral vectors expressing LacZ, WT-SOD1, or the indicated mutant SOD1. E) Superoxide production and percentage of cell death in SH-SY or MO59J cells following infection with the indicated adenoviral vectors followed by treatment with or without apocynin (100 μM) for 72 hours. F) Rac-GTP activation as determined by association with GST-Pak1 using spinal cord cell lysates from non-transgenic (control) or G93A-SOD1 transgenic mice at 120 days of age. Controls include lysate from control mice incubated with GTPγS (+) or GDPβS (−) prior to performing Pak1 pull-down assays. […]

For data set [8], the system named is SH-SY (neuronal) cells. The data set is described as follows: NADPH-dependent superoxide production and cell death in neuronal cells infected with adenovirus expressing mutant SOD1. Format: cell-based. As to conditions: apocynin 100 μM for 72 hours.
Excerpt: as §2

Data set [9] has as its system NADPH oxidase. The data set can be described thus: Nox activity (lucigenin, DHE) in lumbar spinal cord of end-stage G93A-SOD1 mice after 5 days of apocynin. The format is in vivo, mouse. To be noted: terminal stage ALS mice, apocynin 300 mg/kg in water for five days.
Excerpt: as §1

Data set [10] is classed as in vivo. To be noted: non-ALS mice treated with apocynin.
For data set [11], the target named is T2, Rac1/SOD1 binding (Homo sapiens, UniProt P63000).
T2 construct: purchased Cytoskeleton Inc. (His-Rac1); Oxis Research (bovine SOD1)
The data set is described as follows: In vitro pull-down of His-Rac1-GTPγS with SOD1. As for the experimental part: Pull-down assays with GST- and His-tagged proteins. […] The GTPases were either used directly or preloaded with either GTPγS or GDPβS and then washed. […] Samples were incubated at room temperature (RT) for 30 minutes with intermittent gentle agitation. […] The fourth wash was carried out in 50 mM Tris pH 6.8. Proteins were eluted using 20 μl 125 mM imidazole and samples were then mixed with SDS-PAGE reducing loading buffer and separated by SDS-PAGE for Western blotting.

Where two headings read alike, the source gives them in different places.

As for `c1ccc2c(c1)[I+]c1ccccc1-2` [DPI, diphenyleneiodonium chloride], the NADPH-dependent superoxide production entry in data set [1] is recorded as “inhibited”. In addition, the “SOD1-mediated enhancement in endosomal NADPH-dependent superoxide” value in data set [2] is “sensitive”. The “IL-1β-induced H2HFF-BSA fluorescence” value in [3] (10 μM DPI added at IL-1β stimulation) is “significantly inhibited”. For the same compound, the “NADPH-dependent superoxide production in peak vesicular fractions” value in data set [4] is recorded as “sensitive”.

Turning to “Cu/ZnSOD: purified bovine Cu/ZnSOD (Oxis Research) added to media for endosomal loading”, the “IL-1β-induced H2HFF-BSA fluorescence” value in data set [3] (purified Cu/ZnSOD protein loaded into endosomal compartment, 1 mg/ml) was “significantly inhibited”. The “DMPO adduct formation (ESR)” value in [5] is “completely inhibited”.

`COc1cc(C(C)=O)ccc1O` [apocynin, 4-Hydroxy-3-methoxyacetophenone]: the “Number of motor neurons in the lumbar spinal cord” value in data set [6] (300 mg/kg, at 120 days) is “significantly increased”. This compound gave a Probability of survival in data set [6] (SOD1-G93A mice, apocynin 30 mg/Kg, nontreated 125 days, p<0.0001) of 185 days. For the same compound, in data set [6] (apocynin 30 mg/Kg, at 114 days of age, untreated mice impaired gait), the Gait analysis entry is on record as “normal gait”. In addition, the “Survival Index (time between disease onset and clinical death)” value in data set [6] (apocynin 30 mg/Kg, n=6, untreated 11 days) turned out to be 32 days. Besides, the “Survival of G93A-SOD1 mice, dose dependence” value in data set [6] (apocynin in drinking water from 2 weeks of age) is listed as “prolonged survival of G93A-SOD1 mice in a dose-dependent fashion”. Besides, the “Average age of disease onset” value in data set [6] (first observation of hind limb weakness, apocynin 30 mg/Kg, n=6, untreated 117.5 days) was determined as 156.5 days. This compound came in with a 50% survival time in data set [6] (highest dose 300 mg/kg in drinking water from 2 weeks of age, increased from 125 days) of 239 days. For the same compound, the “Life expectancy and disease onset” value in [6] (lowest tested dose) was “prolong life expectancy and delay disease onset”. For the same compound, the “Age of onset of disease and survival index versus dose” value in [6] (onset judged by 5% weight loss and gait) is “clear dose response”. Moreover, in data set [7], the Cell viability result was “increase in cell viability” and the “SOD1 mutant facilitated NADPH-dependent superoxide production” value was “abrogated”. In [8], the Nox activity result was “could not inhibit” and the “Protection from mutant SOD1-mediated cellular injury” value is recorded as “nor did it protect”. For the same compound, the “Nox-derived superoxide production in vivo (spinal cord, lucigenin and DHE assays)” value in [9] is reported as “effectively inhibited”. In addition, in data set [10], the Eye disease entry is recorded as “did not develop eye disease”.

For the compound `O[C@H](CS)[C@H](O)CS` (racemic) [DTT, dithiothreitol], the “DTT concentration reversing H2O2-mediated inhibition of Rac1/SOD1 binding” value in [11] (Rac1 oxidized with 300 pM H2O2) is 50 to 300 µM.

As for `C=C(C)[C@H]1Cc2c(ccc3c2O[C@@H]2COc4cc(OC)c(OC)cc4[C@@H]2C3=O)O1` [rotenone], the “NADPH-dependent superoxide production in peak vesicular fractions” value in [4] (IL-1β-stimulated MCF-7 cells) is given as “not”.

As to antimycin A, the “NADPH-dependent superoxide production in peak vesicular fractions” value in data set [4] (IL-1β-stimulated MCF-7 cells) is given as “not”.

With `OO` [H2O2, hydrogen peroxide], the “Lowest H2O2 concentration causing a significant decrease in the binding affinity of Rac1 for SOD1” value in data set [11] (Rac1 reduced with DTT, preloaded with GTPγS) was determined as 50 pM.

As for catalase, in data set [5], the “DMPO adduct formation (ESR)” value is reported as “not”.
